Reference: patent publication US20230226100A1, “CYCLODEXTRIN BASED ANTI-MICROBIAL THERAPY” (University of Southern California, priority 2020, published 2023)

Columns and labels:
Format in all cases: cell-based
A549 = assay: Alamar Blue chemical dye penetration through barrier, A549
Protocol: (§1) Studies test efficacy barrier to prevent chemical dye penetration. We used a resurazine dye that can penetrate across cellular membranes where it is […] to form a purple color and is quantifiable using fluorescence or visible light. Chemical exposure used Alamar Blue which was incubated for 4 hours. The ability of the barrier formulation to prevent chemical penetration was measured at 570 nm and confirmed using fluorescence intensity (560/590 nm) readings. A concentration dependent response to HPBCD was observed over four hours of incubation. The chemical dye penetration was reduced with increasing percent beta cyclodextrin across all timepoints (FIG. 5).
The ability to block chemical exposure was also conducted in the other cyclodextrins namely hydroxypropyl gamma cyclodextrin (HPGCD), sulfonylbutyl ethyl beta cyclodextrins (SBEBCD), and randomly methylated methyl beta cyclodextrins (CRYSMEB) and incubating over 4 hours. The ability of the barrier formulations to prevent chemical penetration was measured at an absorbance of 570 nm and confirmed using fluorescence intensity (560/590 nm) readings. […] The addition of HEC improved the ability to prevent chemical penetration (Table 2). Although the data is unexpected, it allows for further probe into the effect of these cyclodextrin derivatives on viral particles which may be bigger and more hydrophobic.
(§2) To determine the ability of the candidate nanoscale barrier to prevent chemical penetration, epithelial cells (e.g., HEK293T, A549, Vero-E6 ACE2) were seeded at 1×10^4 cells per well and incubated in DMEM till confluence. Cyclodextrin-based formation candidates were tested at various concentrations from 0 to 20% was added at varying concentrations (% w/v) and incubated for 0.5 h prior to the addition of the Alamar Blue. Alamar Blue is able to penetrate the cell, where viable cells are able to reduce the resazurin-based solution to quantitatively measure level of penetration.

[1] = system: pLV[Exp]-Puro-CMV>EGFP lentivirus; assay: EGFP lentivirus infection of HEK293T cells in presence of barrier
Protocol: To simulate viral infection, we used lentivirus that has green fluorescent protein (GFP) incorporated into its gene. Lentivirus are designed to be highly efficient to transfect epithelial cells such as HEK293T. The effect of HPBCD barrier to present viral infection was evaluated using a concentration escalation study, where HPBCD ranged from 0 to 25% (w/v). In this study, we used a pLV[Exp]-Puro-CMV>EGFP lentivirus to infect HEK293T.
Human muco-ciliary deposition and clearance of exogenous substances occurs in 30 minutes as determined through real time methodology (Thrall et al., Inhalation Toxicology, 2003. 15(6): p. 523-538). Subsequently the EGFP lentivirus was incubated in the presence and absence of the HPBCD barrier for reduced time periods (0.5 h and 2 h) to reflect applicability of a HPBCD nasal spray. After the incubation period, barriers were removed, and cells were washed with 1×PBS before replacement with complete cell culture medium. 24 hours post-incubation at 5% CO2 and 37 degrees C., fluorescence imaging was conducted using the Biotek Cytation 5 imaging device in which 4×GFP images were taken. […] After 30 minutes of incubation with the virus, there is 50% reduction of viral infectivity as measured by fluorescence signal using 5% HPBCD.
To test the ability to prevent viral Epithelial cells (e.g., HEK293T, A549, Vero-E6 ACE2) were used a models chemical and viral infections. Cells were seeded onto 96-well plates at a density of 10^4 cells per well and incubated in DMEM (phenol red free) with 10% FBS and 1% non-essential ammino acids (NEAA). Cells were allowed to attach and grown to confluence to allow for cell polarization prior to experimentation.
Cyclodextrin was added at varying concentrations (% w/v) and incubated for 0.5 h prior to the addition of the virus. Polybrene added at a final concentration of 5 ug/mL to promote viral uptake. Cells were then infected with pLV[Exp]-Puro-CMV>EGFP lentivirus and incubated at 37° C., 5% CO2 for 0.5, 2, or 24 h depending upon the experimental setup. After the incubation time, the beta cyclodextrin solution was removed and cells washed with 1×PBS twice prior to the addition of complete growth medium (DMEM). GFP lentivirus was imaged using the Cytation 5 (Biotek) and relative fluorescence quantified using the Synergy H1 microplate reader (Biotek).

Vero-E6 ACE2 = assay: Alamar Blue chemical dye penetration through barrier, Vero-E6 ACE2
Protocol: as §1, §2

A549 cells = assay: Safety of barriers: A549 cell morphology; details: 5% concentrations; incubated 1 h; 10× magnification
Protocol: During protection of mucocutaneous linings, barriers will be exposed repeatedly due to frequent dosing. A critical criterion for selecting the right cyclodextrin for a nanoformulation barrier usable in this application is the safety of the cyclodextrin type. A549 cells were seeded at 4×10^4 cells per well and grown to confluence. Cyclodextrin-based formation candidates were tested at 5% concentrations and incubated for 1 h prior to the addition. The barrier was then replaced with media for evaluation. Pictures were taken for at least five field views at 10× magnification.

HEK293T = assay: Alamar Blue chemical dye penetration through barrier, HEK293T
Protocol: as §1, §2

[2] = Table 2, confluent A549, 2.5% cyclodextrin (+ HEC: 0.188% HEC), 2 hr, negative values = increase in fluorescence intensity
[3] = Table 2, confluent A549, 2.5% cyclodextrin (+ HEC: 0.188% HEC), 4 hr, negative values = increase in fluorescence intensity
[4] = Table 2, confluent A549, 5% cyclodextrin (+ HEC: 0.375% HEC), 2 hr, negative values = increase in fluorescence intensity
[5] = Table 2, confluent A549, 5% cyclodextrin (+ HEC: 0.375% HEC), 4 hr, negative values = increase in fluorescence intensity
[6] = Table 2, confluent A549, 10% cyclodextrin (+ HEC: 0.75% HEC), 2 hr, negative values = increase in fluorescence intensity
[7] = Table 2, confluent A549, 10% cyclodextrin (+ HEC: 0.75% HEC), 4 hr, negative values = increase in fluorescence intensity
[8] = confluent A549, incubation over 4 hours
[9] = 2.5% HPBCD (Combination: + 0.188% HEC), 2 hr
[10] = 2.5% HPBCD (Combination: + 0.188% HEC), 4 hr
[11] = 5% HPBCD (Combination: + 0.375% HEC), 2 hr
[12] = 5% HPBCD (Combination: + 0.375% HEC), 4 hr
[13] = 10% HPBCD (Combination: + 0.75% HEC), 2 hr
[14] = 10% HPBCD (Combination: + 0.75% HEC), 4 hr

2-Hydroxypropyl-Gamma-cyclodextrin [HPGCD]
Percent Reduction Compared to No Barrier Treatment (Mean ± SD) (A549; [2]): −89.9 ± 3.8% | Percent Reduction Compared to No Barrier Treatment (Mean ± SD) (A549; [3]): −244.5 ± 3.0% | Percent Reduction Compared to No Barrier Treatment (Mean ± SD) (A549; [4]): −46.7 ± 2.4% | Percent Reduction Compared to No Barrier Treatment (Mean ± SD) (A549; [5]): −210.66 ± 3.0% | Percent Reduction Compared to No Barrier Treatment (Mean ± SD) (A549; [6]): −13.1 ± 1.4% | Percent Reduction Compared to No Barrier Treatment (Mean ± SD) (A549; [7]): −97.0 ± 2.1% | chemical dye penetration (in words) (A549; [8]): enhanced chemical dye penetration

CC(O)COC[C@H]1O[C@@H]2O[C@H]3[C@H](O)[C@@H](O)[C@@H](O[C@H]4[C@H](O)[C@@H](O)[C@@H](O[C@H]5[C@H](O)[C@@H](O)[C@@H](O[C@H]6[C@H](O)[C@@H](O)[C@@H](O[C@H]7[C@H](O)[C@@H](O)[C@@H](O[C@H]8[C@H](O)[C@@H](O)[C@@H](O[C@H]1[C@H](O)[C@H]2O)O[C@@H]8COCC(C)O)O[C@@H]7COCC(C)O)O[C@@H]6COCC(C)O)O[C@@H]5COCC(C)O)O[C@@H]4COCC(C)O)O[C@@H]3COCC(C)O (stereo partly drawn) [HPBCD, (2-Hydroxypropyl)-Beta-Cyclodextrin]
Percent Reduction Compared to No Barrier Treatment (Mean ± SD) (A549; A549, 2.5% HPBCD (Combination: + 0.188% HEC), 2 hr): 82.5 ± 1.4% | Percent Reduction Compared to No Barrier Treatment (Mean ± SD) (A549; A549, 2.5% HPBCD (Combination: + 0.188% HEC), 4 hr): 66.9 ± 1.9% | Percent Reduction Compared to No Barrier Treatment (Mean ± SD) (A549; A549, 5% HPBCD (Combination: + 0.375% HEC), 2 hr): 88.5 ± 0.7% | Percent Reduction Compared to No Barrier Treatment (Mean ± SD) (A549; A549, 5% HPBCD (Combination: + 0.375% HEC), 4 hr): 81.5 ± 0.7% | Percent Reduction Compared to No Barrier Treatment (Mean ± SD) (A549; A549, 10% HPBCD (Combination: + 0.75% HEC), 2 hr): 89.3 ± 0.6% | Percent Reduction Compared to No Barrier Treatment (Mean ± SD) (A549; A549, 10% HPBCD (Combination: + 0.75% HEC), 4 hr): 82.9 ± 0.9% | viral infectivity (GFP expressing lentiviruses) ([1]; 5-20% HPBCD alone): able to reduce viral infectivity | signs of lentivirus infection ([1]; 20% HPBCD alone as a barrier): No signs of lentivirus infection | infectivity in HEK cells ([1]; 0.5 h and 2 h incubation, p<0.05 and p<0.01 respectively): concentration dependent decrease in infectivity | reduction of viral infectivity as measured by fluorescence signal ([1]; HEK293T, 5% HPBCD, 30 minutes of incubation with the virus): 50% | lentivirus infectivity ([1]; HEK293T, MOI of 5, 6 hours, 10% and 20% HPBCD, p≤0.01): reduced lentivirus infectivity | Percent Reduction Compared to No Barrier Treatment (Mean ± SD) (Vero-E6 ACE2; [9]): 62.8 ± 2.0% | Percent Reduction Compared to No Barrier Treatment (Mean ± SD) (Vero-E6 ACE2; [10]): 67.1 ± 1.8% | Percent Reduction Compared to No Barrier Treatment (Mean ± SD) (Vero-E6 ACE2; [11]): 70.2 ± 1.2% | Percent Reduction Compared to No Barrier Treatment (Mean ± SD) (Vero-E6 ACE2; [12]): 76.9 ± 0.6% | Percent Reduction Compared to No Barrier Treatment (Mean ± SD) (Vero-E6 ACE2; [13]): 73.5 ± 1.2% | Percent Reduction Compared to No Barrier Treatment (Mean ± SD) (Vero-E6 ACE2; [14]): 82.5 ± 0.9% | A549 cell morphology / cell death (A549 cells): No significant changes in cellular morphology or cell death | Percent Reduction Compared to No Barrier Treatment (Mean ± SD) (HEK293T; [9]): 70.4 ± 1.7% | Percent Reduction Compared to No Barrier Treatment (Mean ± SD) (HEK293T; [10]): 71.7 ± 0.8% | Percent Reduction Compared to No Barrier Treatment (Mean ± SD) (HEK293T; [11]): 77.5 ± 0.6% | Percent Reduction Compared to No Barrier Treatment (Mean ± SD) (HEK293T; [12]): 80.4 ± 0.8% | Percent Reduction Compared to No Barrier Treatment (Mean ± SD) (HEK293T; [13]): 79.8 ± 0.6% | Percent Reduction Compared to No Barrier Treatment (Mean ± SD) (HEK293T; [14]): 84.3 ± 0.6% | chemical dye (Alamar blue) penetration, relative fluorescence intensity vs no treatment (HEK293T; FIG. 5, P<0.01): statistically significant reduction

crystalline methylated beta-cyclodextrin [CRYSMEB]
chemical dye penetration (in words) (A549; A549, across all timepoints): reduced in a dose-dependent manner | Percent Reduction Compared to No Barrier Treatment (Mean ± SD) (A549; [2]): 36.0 ± 2.3% | Percent Reduction Compared to No Barrier Treatment (Mean ± SD) (A549; [3]): 35.3 ± 1.9% | Percent Reduction Compared to No Barrier Treatment (Mean ± SD) (A549; [4]): 47.9 ± 0.8% | Percent Reduction Compared to No Barrier Treatment (Mean ± SD) (A549; [5]): 52.3 ± 2.6% | Percent Reduction Compared to No Barrier Treatment (Mean ± SD) (A549; [6]): 58.5 ± 1.4% | Percent Reduction Compared to No Barrier Treatment (Mean ± SD) (A549; [7]): 67.6 ± 2.3% | A549 cell morphology / cell death (A549 cells): cellular death and cellular morphological changes

sulfobutyl ether-beta-cyclodextrin [SBEBCD]
Percent Reduction Compared to No Barrier Treatment (Mean ± SD) (A549; [2]): 10.7 ± 2.57% | Percent Reduction Compared to No Barrier Treatment (Mean ± SD) (A549; [3]): −244.5 ± 3.0% | Percent Reduction Compared to No Barrier Treatment (Mean ± SD) (A549; [4]): 39.5 ± 1.2% | Percent Reduction Compared to No Barrier Treatment (Mean ± SD) (A549; [5]): −218.2 ± 13.2% | Percent Reduction Compared to No Barrier Treatment (Mean ± SD) (A549; [6]): 51.3 ± 2.4% | Percent Reduction Compared to No Barrier Treatment (Mean ± SD) (A549; [7]): −108.2 ± 19.5% | chemical dye penetration (in words) (A549; confluent A549, 2 h timepoint): dose-dependent reduction in chemical dye penetration | chemical dye penetration (in words) (A549; [8]): enhanced chemical dye penetration
